Data taken from patent US20260216294A1, “BETA 2-ADRENERGIC RECEPTOR AGONISTS FOR TREATMENT OR PREVENTION OF MUSCLE WASTING” (ATROGI AB, priority 2023, published 2026).

Experiments:
[1] = system: L6-myotubes; experiment: Measurement of intracellular cAMP levels in differentiated L6-myotubes (Biological Example 3); type: cell-based; details: 0.25 h, intracellular cAMP in differentiated L6-myotubes; compound at 10 μM, activity relative to isoproterenol at 10 μM
Method in brief: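 Serum-starved differentiated L6 myotubes stimulated 15 min with test compound at 1×10^−5 M final (isoprenaline as reference) in HBSS with 1% BSA, 5 mM HEPES, 1 mM IBMX, pH 7.4. Cells EtOH-extracted, lysed, and intracellular cAMP measured by AlphaScreen.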

[2] = system: L6-myotubes; experiment: Glucose uptake in differentiated L6-myotubes (Biological Example 2); type: cell-based; details: glucose uptake in differentiated L6-myotubes; compound at 10 μM, activity relative to isoproterenol at 10 μM; read-out: Biological example 2 (GU)
Method in brief: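 Differentiated L6 myotubes were serum-starved overnight in 0.5% fatty-acid-free BSA and then stimulated with compound or isoprenaline at 1×10^−5 M final. After 1 h 40 min cells were washed and re-dosed in glucose-free medium. Twenty minutes later, uptake of 50 nM ^3H-2-deoxyglucose over 10 min was measured by scintillation counting of NaOH lysates.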

Compound	Emax at 10 µM [1] [%]	Emax at 10 µM [2] [%]
CO[C@H]1CC[C@H](C[C@H]2CC[C@H]([C@H](O)c3cncc(F)c3)N2)CC1 [Compound 341]	< 25	> 75
COC(=O)[C@H]1CC[C@H](CCC(C)(C)NC[C@H](O)c2cncc(F)c2)CC1 [Compound 342, methyl (1R,4r)-4-{3-[(R)-2-(5-fluoro-3-pyridyl)-2-hydroxyethylamino]-3-methylbutyl} cyclohexanecarboxylate]	< 25	> 75
CC(C)(CC[C@H]1CC[C@H](C(=O)O)CC1)NC[C@H](O)c1cncc(F)c1 [Compound 343, (1R,4r)-4-{3-[(R)-2-(5-fluoro-3-pyridyl)-2-hydroxyethylamino]-3-methylbutyl} cyclohexanecarboxylic acid]	< 25	25 to 50
CC(C)(NC[C@H](O)c1cncc(F)c1)[C@H]1CC[C@H](N)CC1 [Compound 344]	< 25	< 25
CC(C)(NC[C@H](O)c1cncc(F)c1)[C@H]1CC[C@H](NS(C)(=O)=O)CC1 [Compound 345, (R)-1-(5-fluoro-3-pyridyl)-2-{1-methyl-1-[(1r,4R)-4-(mesylamino)cyclohexyl]ethylamino}-1-ethanol]	< 25	25 to 50
CC(=O)N[C@H]1CC[C@H](C(C)(C)NC[C@H](O)c2cncc(F)c2)CC1 [Compound 346, N-[(1R,4r)-4-{1-[(R)-2-(5-fluoro-3-pyridyl)-2-hydroxyethylamino]-1-methylethyl}cyclohexyl] acetamide]	< 25	> 75
CC(C)(CC[C@H]1CC[C@@H](C(=O)O)CC1)NC[C@H](O)c1cncc(F)c1 [Compound 347, (1S,4s)-4-{3-[(R)-2-(5-fluoro-3-pyridyl)-2-hydroxyethylamino]-3-methylbutyl} cyclohexanecarboxylic acid]	< 25	> 75
CC(C)(CC[C@H]1CC[C@H](C(=O)O)CC1)NC[C@H](O)c1cccc(F)c1 [Compound 348, (1R,4r)-4-{3-[(R)-2-(m-fluorophenyl)-2-hydroxyethylamino]-3-methylbutyl} cyclohexanecarboxylic acid]	< 25	< 25
COC(=O)[C@H]1CC[C@@H](CCC(C)(C)NC[C@H](O)c2cncc(F)c2)CC1 [Compound 349, methyl (1S,4s)-4-{3-[(R)-2-(5-fluoro-3-pyridyl)-2-hydroxyethylamino]-3-methylbutyl} cyclohexanecarboxylate]	25 to 50	> 75
COC(=O)[C@H]1CC[C@H](CCC(C)(C)NC[C@H](O)c2cccc(F)c2)CC1 [Compound 350, methyl (1R,4r)-4-{3-[(R)-2-(m-fluorophenyl)-2-hydroxyethylamino]-3-methylbutyl} cyclohexanecarboxylate]	< 25	> 75
COC(=O)[C@H]1CC[C@@H](CCC(C)(C)NC[C@H](O)c2cccc(F)c2)CC1 [Compound 351, methyl (1S,4s)-4-{3-[(R)-2-(m-fluorophenyl)-2-hydroxyethylamino]-3-methylbutyl} cyclohexanecarboxylate]	25 to 50	> 75
CC(C)(CC[C@H]1CC[C@@H](C(=O)O)CC1)NC[C@H](O)c1cccc(F)c1 [Compound 352, (1S,4s)-4-{3-[(R)-2-(m-fluorophenyl)-2-hydroxyethylamino]-3-methylbutyl} cyclohexanecarboxylic acid]	< 25	25 to 50
COC(=O)[C@H]1CC[C@H](CC(C)(C)NC[C@H](O)c2cccc(F)c2)CC1 [Compound 353, methyl (1R,4r)-4-{2-[(R)-2-(m-fluorophenyl)-2-hydroxyethylamino]-2-methylpropyl} cyclohexanecarboxylate]	< 25	> 75
COC(=O)[C@H]1CC[C@H](CC(C)(C)NC[C@H](O)c2cncc(F)c2)CC1 [Compound 354, methyl (1R,4r)-4-{2-[(R)-2-(5-fluoro-3-pyridyl)-2-hydroxyethylamino]-2-methylpropyl} cyclohexanecarboxylate]	< 25	50 to 75
CC(C)(C[C@H]1CC[C@H](C(=O)O)CC1)NC[C@H](O)c1cccc(F)c1 [Compound 355, (1R,4r)-4-{2-[(R)-2-(m-fluorophenyl)-2-hydroxyethylamino]-2-methylpropyl} cyclohexanecarboxylic acid]	< 25	50 to 75
CC(C)(C[C@H]1CC[C@H](C(=O)O)CC1)NC[C@H](O)c1cncc(F)c1 [Compound 356, (1R,4r)-4-{2-[(R)-2-(5-fluoro-3-pyridyl)-2-hydroxyethylamino]-2-methylpropyl} cyclohexanecarboxylic acid]	< 25	< 25
CC(=O)N[C@H]1CC[C@H](CC(C)(C)NC[C@H](O)c2cncc(F)c2)CC1 [Compound 357]	< 25	> 75
CC(C)(CC[C@H]1CC[C@H](N)CC1)NC[C@H](O)c1cncc(F)c1 [Compound 358]	< 25	25 to 50
CC(C)(C[C@H]1CC[C@H](N)CC1)NC[C@H](O)c1cncc(F)c1 [Compound 359, (R)-2-{1,1-dimethyl-2-[(1r,4R)-4-aminocyclohexyl]ethylamino}-1-(5-fluoro-3-pyridyl)-1-ethanol]	< 25	> 75
CC(C)(C[C@H]1CC[C@H](NS(C)(=O)=O)CC1)NC[C@H](O)c1cncc(F)c1 [Compound 360, (R)-2-{1,1-dimethyl-2-[(1r,4R)-4-(mesylamino)cyclohexyl]ethylamino}-1-(5-fluoro-3-pyridyl)-1-ethanol]	< 25	> 75
CC(=O)N[C@H]1CC[C@H](CCC(C)(C)NC[C@H](O)c2cncc(F)c2)CC1 [Compound 361, N-[(1R,4r)-4-{3-[(R)-2-(5-fluoro-3-pyridyl)-2-hydroxyethylamino]-3-methylbutyl}cyclohexyl] acetamide]	< 25	> 75
CC(C)(CC[C@H]1CC[C@H](NS(C)(=O)=O)CC1)NC[C@H](O)c1cncc(F)c1 [Compound 362, (R)-2-{1,1-dimethyl-3-[(1r,4R)-4-(mesylamino)cyclohexyl]propylamino}-1-(5-fluoro-3-pyridyl)-1-ethanol]	< 25	50 to 75
CO[C@H]1CC[C@H](C[C@]2(C)CC[C@H]([C@@H](O)c3cccc(F)c3)N2)CC1 [Compound 363, (S)-[(2R,5S)-5-methyl-5-{[(1r,4S)-4-methoxycyclohexyl]methyl}-2-pyrrolidinyl](m-fluorophenyl)methanol]	< 25	> 75
CO[C@H]1CC[C@H](C[C@]2(C)CC[C@H]([C@H](O)c3cccc(F)c3)N2)CC1 [Compound 364, (R)-[(2R,5S)-5-methyl-5-{[(1r,4S)-4-methoxycyclohexyl]methyl}-2-pyrrolidinyl] (m-fluorophenyl)methanol]	50 to 75	> 75
COc1ccc(C[C@@]2(C)CC[C@H]([C@@H](O)c3cccc(F)c3)N2)cc1 [Compound 365, (S)-{(2R,5R)-5-[(p-methoxyphenyl)methyl]-5-methyl-2-pyrrolidinyl}(m-fluorophenyl)methanol]	< 25	> 75
